Tests used:
[1] = tested on: A549-ACE2 infected with SARS-CoV-2; assay: cell count relative to DMSO; higher = less toxic; conditions: 24 h
Caco-2 [2] = assay: cell viability relative to DMSO; higher = less toxic; conditions: 72 h
Calu-3 [3] = assay: as above; conditions: 72 h
HepG2 [4] = assay: as above; conditions: 72 h
U2OS [5] = assay: as above; conditions: 72 h
Vero E6 [6] = assay: as above; conditions: 72 h
[7] = tested on: A549-ACE2 infected with SARS-CoV-2; assay: SARS-CoV-2 infection rate relative to DMSO; higher = more infection; conditions: 24 h
A549-ACE2 = assay: drug-induced phospholipidosis relative to tamoxifen; higher = more phospholipidosis
[8] = tested on: A549-ACE2 infected with SARS-CoV-2; assay: morphology score (similarity to uninfected cells); higher = more like uninfected cells; conditions: 24 h
Caco-2 [9] = assay: relative viability EC50 (midpoint between 100% and the lowest measured viability); higher = less toxic; conditions: 72 h
U2OS [10] = assay: as above; conditions: 72 h
Caco-2 [11] = assay: drug sensitivity score (DSS) for viability; higher = more toxic; extreme values may be limits of the assay; conditions: 72 h
Calu-3 [12] = assay: as above; conditions: 72 h
HepG2 [13] = assay: as above; conditions: 72 h
U2OS [14] = assay: as above; conditions: 72 h
Vero E6 [15] = assay: as above; conditions: 72 h
Calu-3 [16] = assay: relative viability EC50 (midpoint between 100% and the lowest measured viability); higher = less toxic; conditions: 72 h
HepG2 [17] = assay: as above; conditions: 72 h
Vero E6 [18] = assay: as above; conditions: 72 h

O=C1NC(=O)C(c2cnc3ccccn23)=C1c1cn2c3c(cc(F)cc13)CN(C(=O)N1CCCCC1)CC2
Conditions | SARS-CoV-2 infection rate, [7] [%] | cell count, [1] [%] | cell viability, Caco-2 [2] [%] | cell viability, Calu-3 [3] [%] | cell viability, HepG2 [4] [%] | cell viability, U2OS [5] [%] | cell viability, Vero E6 [6] [%] | morphology score, [8]
1 nM | – | – | 104 | 101 | 121 | 108 | 105 | –
10 nM | – | – | 109 | 111 | 113 | 112 | 105 | –
100 nM | – | – | 87.3 | 80 | 109 | 99.5 | 95.9 | –
0.3 µM | 114 | 79 | – | – | – | – | – | -0.23
1000 nM | – | – | 70.5 | 68.1 | 94 | 94.2 | 66.1 | –
3 µM | 108 | 75 | – | – | – | – | – | -0.14
10 µM | 92 | 72 | – | – | – | – | – | -0.05
10000 nM | – | – | 47.3 | 61 | 56.7 | 80.3 | 77.9 | –
30 µM | 49 | 50 | – | – | – | – | – | 0.41

A549-ACE2, 24 h
Conditions | drug-induced phospholipidosis [%]
0.3 µM | -5.51
0.833333 µM | -3
3.33333 µM | -2.04
6.66667 µM | -0.59
10 µM | 12.5

Conditions | drug sensitivity score | relative viability EC50 [nM]
Caco-2 [9] | – | 624
Caco-2 [11] | 6.7 | –
Calu-3 [12] | 9.5 | –
HepG2 [13] | 3.2 | –
U2OS [10] | – | > 10000
U2OS [14] | 1.3 | –
Vero E6 [15] | 6.6 | –

CN1CCCCC1Cn1cc(C(=O)c2cc([N+](=O)[O-])ccc2I)c2ccccc21 (stereo not given) [AM-1241]
Conditions | SARS-CoV-2 infection rate, [7] [%] | cell count, [1] [%] | cell viability, Caco-2 [2] [%] | cell viability, Calu-3 [3] [%] | cell viability, HepG2 [4] [%] | cell viability, U2OS [5] [%] | cell viability, Vero E6 [6] [%] | morphology score, [8]
1 nM | – | – | 92.7 | 103 | 89.1 | 94 | 95.4 | –
10 nM | – | – | 92.8 | 103 | 101 | 97.6 | 99.2 | –
100 nM | – | – | 100 | 99.3 | 107 | 91.7 | 96.5 | –
0.3 µM | 107 | 104 | – | – | – | – | – | 0.18
1000 nM | – | – | 94.4 | 94.4 | 102 | 98.1 | 97.1 | –
3 µM | 85 | 109 | – | – | – | – | – | 0.36
10 µM | 63 | 118 | – | – | – | – | – | 0.87
10000 nM | – | – | 97.8 | 104 | 102 | 99 | 106 | –
30 µM | 33 | 115 | – | – | – | – | – | 0.66

drug-induced phospholipidosis [%], A549-ACE2
Conditions | 0.3 µM | 0.833333 µM | 3.33333 µM | 6.66667 µM | 10 µM | 30 µM
24 h | -1.12 | 0.49 | 3.57 | 9.5 | 15.9 | 81.8
48 h | -0.88 | -2.35 | 0.06 | 1.85 | 8.12 | 104
72 h | -1.12 | -4.89 | -3.06 | 1.99 | 5.24 | 111

Conditions | drug sensitivity score | relative viability EC50 [nM]
Caco-2 [9] | – | > 10000
Caco-2 [11] | 0 | –
Calu-3 [12] | 0 | –
Calu-3 [16] | – | > 10000
HepG2 [13] | 0 | –
HepG2 [17] | – | > 10000
U2OS [10] | – | > 10000
U2OS [14] | 0 | –
Vero E6 [15] | 0 | –
Vero E6 [18] | – | > 10000

CCC(CC)COC(=O)[C@H](C)N[P@](=O)(OC[C@H]1O[C@@](C#N)(c2ccc3c(N)ncnn23)[C@H](O)[C@@H]1O)Oc1ccccc1 [Remdesivir]
Conditions | SARS-CoV-2 infection rate [%] | cell count [%] | cell viability [%] | morphology score
Caco-2 [2], 1 nM | – | – | 103 | –
Caco-2 [2], 10 nM | – | – | 101 | –
Caco-2 [2], 100 nM | – | – | 102 | –
Caco-2 [2], 1000 nM | – | – | 102 | –
Caco-2 [2], 10000 nM | – | – | 69.3 | –
Calu-3 [3], 1 nM | – | – | 90.6 | –
Calu-3 [3], 10 nM | – | – | 103 | –
Calu-3 [3], 100 nM | – | – | 88.7 | –
Calu-3 [3], 1000 nM | – | – | 97 | –
Calu-3 [3], 10000 nM | – | – | 81.1 | –
HepG2 [4], 1 nM | – | – | 101 | –
HepG2 [4], 10 nM | – | – | 95.5 | –
HepG2 [4], 100 nM | – | – | 105 | –
HepG2 [4], 1000 nM | – | – | 70.2 | –
HepG2 [4], 10000 nM | – | – | 33.7 | –
U2OS [5], 1 nM | – | – | 98 | –
U2OS [5], 10 nM | – | – | 100 | –
U2OS [5], 100 nM | – | – | 101 | –
U2OS [5], 1000 nM | – | – | 96.1 | –
U2OS [5], 10000 nM | – | – | 42.6 | –
Vero E6 [6], 1 nM | – | – | 97.2 | –
Vero E6 [6], 10 nM | – | – | 97.6 | –
Vero E6 [6], 100 nM | – | – | 99.7 | –
Vero E6 [6], 1000 nM | – | – | 99.3 | –
Vero E6 [6], 10000 nM | – | – | 109 | –
[1], 0.008 µM | – | 104 | – | –
[1], 0.033 µM | – | 114 | – | –
[1], 0.1 µM | – | 120 | – | –
[1], 0.3 µM | – | 126 | – | –
[1], 1 µM | – | 124 | – | –
[1], 3 µM | – | 116 | – | –
[1], 10 µM | – | 111 | – | –
[1], 30 µM | – | 105 | – | –
[7], 0.008 µM | 95 | – | – | –
[7], 0.033 µM | 83 | – | – | –
[7], 0.1 µM | 18 | – | – | –
[7], 0.3 µM | 11 | – | – | –
[7], 1 µM | 16 | – | – | –
[7], 3 µM | 9 | – | – | –
[7], 10 µM | 2 | – | – | –
[7], 30 µM | 2 | – | – | –
[8], 0.008 µM | – | – | – | 0.17
[8], 0.033 µM | – | – | – | 0.61
[8], 0.1 µM | – | – | – | 0.82
[8], 0.3 µM | – | – | – | 0.95
[8], 1 µM | – | – | – | 0.96
[8], 3 µM | – | – | – | 0.97
[8], 10 µM | – | – | – | 0.93
[8], 30 µM | – | – | – | 0.93

drug-induced phospholipidosis [%], A549-ACE2
Conditions | 0.3 µM | 0.833333 µM | 3.33333 µM | 6.66667 µM | 10 µM | 30 µM
24 h | 1.03 | -4.55 | 5.63 | 18 | 30 | 47.1
48 h | 4.23 | -7.54 | 0.11 | 4.58 | 10.5 | –
72 h | 4.52 | -8.77 | -4.57 | – | – | –

Conditions | drug sensitivity score | relative viability EC50 [nM]
Caco-2 [11] | 1.2 | –
Calu-3 [12] | 0.4 | –
Calu-3 [16] | – | > 10000
HepG2 [13] | 7.5 | –
HepG2 [17] | – | 1090
U2OS [10] | – | 2620
U2OS [14] | 3.7 | –
Vero E6 [15] | 0 | –
Vero E6 [18] | – | > 10000

COc1ccc(C[C@H]2NC[C@H](O)[C@H]2OC(C)=O)cc1 [anisomycin]
Conditions | SARS-CoV-2 infection rate, [7] [%] | cell count, [1] [%] | cell viability, Caco-2 [2] [%] | cell viability, Calu-3 [3] [%] | cell viability, HepG2 [4] [%] | cell viability, U2OS [5] [%] | cell viability, Vero E6 [6] [%] | morphology score, [8]
1 nM | – | – | 99.4 | 103 | 96.1 | 103 | 94.1 | –
10 nM | – | – | 87 | 97.9 | 98.5 | 95.6 | 93 | –
0.1 µM | 7 | 103 | – | – | – | – | – | 0.85
100 nM | – | – | 58.5 | 67.4 | 39.4 | 53.4 | 34.1 | –
0.3 µM | 6 | 85 | – | – | – | – | – | 0.65
1 µM | 18 | 64 | – | – | – | – | – | 0.48
1000 nM | – | – | 24.8 | 35.1 | 11.8 | 5.4 | 9.8 | –
3 µM | 14 | 34 | – | – | – | – | – | 0.46
10000 nM | – | – | 26.5 | 29.1 | 3.7 | 0.5 | 0.4 | –

A549-ACE2, 24 h
Conditions | drug-induced phospholipidosis [%]
0.3 µM | 4.72
0.833333 µM | -0.99

Conditions | drug sensitivity score | relative viability EC50 [nM]
Caco-2 [9] | – | 69.1
Caco-2 [11] | 18.9 | –
Calu-3 [12] | 16.1 | –
Calu-3 [16] | – | 117
HepG2 [13] | 24.6 | –
HepG2 [17] | – | 72.8
U2OS [10] | – | 110
U2OS [14] | 22.9 | –
Vero E6 [15] | 25.9 | –
Vero E6 [18] | – | 61.4
